{
  "source": "patent US10092028B2",
  "about": "“Compositions comprising cinnamaldehyde and zinc and methods of using such compositions” (NESTEC S.A., priority 2014, dated 2018)",
  "key": {"[1]": {"details": "in vivo; cited from earlier work"}, "[2]": {"test": "nose temperature after ingestion in human subjects", "format": "in vivo", "details": "fifteen minutes following ingestion, FIG. 7", "method": "(§1) The nose temperature of the subjects was analyzed over the fifteen minutes following ingestion of the various compounds. […] The increased sympathetic activity identified by measuring the facial temperature (increased blood flow on the chin) might explain the increased energy expenditure measured by indirect calorimetry."}, "[3]": {"test": "comparative taste testing in human subjects", "format": "in vivo", "details": "4.8 ppm capsaicin or 350 ppm cinnamaldehyde, FIG. 9", "method": "Human subjects were administered a composition comprising 4.8 ppm capsaicin or 350 ppm cinnamaldehyde. […] 87.9% of the participants judged capsaicin intense to very intense, compared to only 20.5% for cinnamaldehyde. To achieve a similar effect on fat oxidation of capsaicin and cinnamaldehyde, the dose of capsaicin is about 1.5 times less than the maximum that can be used as a flavor (7 ppm according to Fenaroli's Handbook; Burdock, 2010), and the dose of cinnamaldehyde is about 17.5 times less than the maximum that can be used as a flavor (6191.0 ppm according to Fenaroli's Handbook; Burdock, 2010)."}, "[4]": {"test": "energy expenditure after ingestion in human subjects", "format": "in vivo", "method": "Human subjects were administered placebo, a cooling flavor, capsaicin, or cinnamaldehyde. The energy expenditure was measured over the eighty minutes following ingestion. […] The increased sympathetic activity identified by measuring the facial temperature (increased blood flow on the chin) might explain the increased energy expenditure measured by indirect calorimetry."}, "TRPA1": {"biological_target": "TRPA1 (Homo sapiens, UniProt O75762)", "sequence (O75762 whole entry)": "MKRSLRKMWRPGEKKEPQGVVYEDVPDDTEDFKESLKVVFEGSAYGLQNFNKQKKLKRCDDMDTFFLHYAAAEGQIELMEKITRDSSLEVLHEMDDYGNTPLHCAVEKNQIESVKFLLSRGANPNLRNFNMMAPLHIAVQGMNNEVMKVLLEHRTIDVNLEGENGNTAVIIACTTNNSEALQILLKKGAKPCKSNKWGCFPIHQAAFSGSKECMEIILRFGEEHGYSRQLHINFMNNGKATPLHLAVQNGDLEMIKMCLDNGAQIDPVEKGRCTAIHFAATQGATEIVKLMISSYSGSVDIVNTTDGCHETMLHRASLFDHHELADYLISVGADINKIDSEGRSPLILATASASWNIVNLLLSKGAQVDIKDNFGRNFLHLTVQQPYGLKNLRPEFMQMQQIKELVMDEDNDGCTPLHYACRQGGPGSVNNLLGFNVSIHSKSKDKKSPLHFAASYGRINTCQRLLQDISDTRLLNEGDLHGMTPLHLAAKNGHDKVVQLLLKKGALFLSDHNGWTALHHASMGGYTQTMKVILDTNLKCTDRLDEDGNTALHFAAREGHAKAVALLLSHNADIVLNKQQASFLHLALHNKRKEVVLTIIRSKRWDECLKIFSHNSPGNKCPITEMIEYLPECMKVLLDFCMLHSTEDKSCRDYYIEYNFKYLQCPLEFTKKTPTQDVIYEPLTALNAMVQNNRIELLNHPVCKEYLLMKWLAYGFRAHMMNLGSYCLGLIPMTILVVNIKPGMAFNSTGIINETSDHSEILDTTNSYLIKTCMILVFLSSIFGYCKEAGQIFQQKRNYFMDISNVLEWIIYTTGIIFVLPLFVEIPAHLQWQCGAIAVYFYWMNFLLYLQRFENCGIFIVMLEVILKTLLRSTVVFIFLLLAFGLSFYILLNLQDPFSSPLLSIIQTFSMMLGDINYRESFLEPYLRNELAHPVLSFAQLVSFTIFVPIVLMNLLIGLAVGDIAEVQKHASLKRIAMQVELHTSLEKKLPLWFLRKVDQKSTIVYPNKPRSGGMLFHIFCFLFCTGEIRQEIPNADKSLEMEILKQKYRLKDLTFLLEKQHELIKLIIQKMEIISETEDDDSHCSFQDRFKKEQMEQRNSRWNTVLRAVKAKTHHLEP", "details": "read-out: EC50 for activation of TRPA1; cited from earlier work"}, "[5]": {"test": "chin temperature after ingestion in human subjects (sympathetic activity)", "format": "in vivo", "method": "as §1, with “chin” for “nose”, “measured” for “analyzed”, “eighty” for “fifteen”"}, "[6]": {"test": "insulin sensitivity in mice with chronic ingestion, high fat diet", "format": "in vivo", "details": "mice chronically fed high fat diet containing 0.2 wt % cinnamaldehyde, FIG. 11", "description": "The composition can thereby reduce glycemia."}, "[7]": {"test": "postprandial fat oxidation after ingestion in human subjects", "format": "in vivo", "method": "The postprandial fat oxidation was measured over the 90 minutes following ingestion of the various compounds."}, "[8]": {"biological_target": "T1, hTRPA1 expressed in CHO cells (Homo sapiens, UniProt O75762)", "T1 construct": "expressed in transfected cells; host or cells: CHO cells", "T1 sequence (O75762 whole entry)": "as above", "test": "in vitro activity of hTRPA1 expressed in CHO cells, intracellular calcium with a fluorescent dye", "format": "cell-based", "details": "cinnamaldehyde at 50 mM (C+), according to a dose-response curve"}, "TRPV1": {"biological_target": "TRPV1 (Homo sapiens, UniProt Q8NER1)", "sequence (Q8NER1 whole entry, species assumed)": "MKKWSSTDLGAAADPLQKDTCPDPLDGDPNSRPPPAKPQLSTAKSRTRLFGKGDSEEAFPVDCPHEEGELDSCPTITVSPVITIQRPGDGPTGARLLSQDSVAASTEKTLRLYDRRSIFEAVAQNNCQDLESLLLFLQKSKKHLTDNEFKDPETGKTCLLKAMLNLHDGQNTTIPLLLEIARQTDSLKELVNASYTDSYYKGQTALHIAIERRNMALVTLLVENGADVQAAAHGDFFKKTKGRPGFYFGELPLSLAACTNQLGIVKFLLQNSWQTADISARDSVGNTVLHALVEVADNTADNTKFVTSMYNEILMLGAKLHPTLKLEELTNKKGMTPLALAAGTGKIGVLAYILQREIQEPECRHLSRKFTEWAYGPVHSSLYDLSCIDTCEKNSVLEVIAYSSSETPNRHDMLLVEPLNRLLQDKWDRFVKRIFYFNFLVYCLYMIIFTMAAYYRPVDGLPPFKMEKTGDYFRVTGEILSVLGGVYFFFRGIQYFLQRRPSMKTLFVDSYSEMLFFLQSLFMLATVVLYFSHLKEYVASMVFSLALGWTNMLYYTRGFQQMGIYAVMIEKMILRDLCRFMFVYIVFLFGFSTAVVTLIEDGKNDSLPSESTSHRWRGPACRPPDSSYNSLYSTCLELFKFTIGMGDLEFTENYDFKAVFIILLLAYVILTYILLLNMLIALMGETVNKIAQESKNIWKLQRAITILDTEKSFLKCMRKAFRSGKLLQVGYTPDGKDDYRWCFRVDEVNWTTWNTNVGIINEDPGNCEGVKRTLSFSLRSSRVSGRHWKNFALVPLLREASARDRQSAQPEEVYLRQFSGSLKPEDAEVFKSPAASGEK", "details": "cited from earlier work"}, "[9]": {"details": "at a flavoring level judged significantly less intense than capsaicin"}},
  "data": [
    {"smiles": "COc1cc(CNC(=O)CCCC/C=C/C(C)C)ccc1O", "note": "[capsaicin]", "values": [
      {"measurement": "efficient dose for increasing energy expenditure and fat oxidation", "setting": "[1]", "value": "≥ 20", "unit": "mg"},
      {"measurement": "nose temperature", "setting": "[2]", "value": "increase nose temperatures"},
      {"measurement": "participants who judged the taste intense to very intense", "setting": "[3]", "value": 87.9, "unit": "%"}
    ]},
    {"smiles": "O=CC=Cc1ccccc1", "note": "[cinnamaldehyde]", "values": [
      {"measurement": "impact on energy expenditure compared to capsaicin", "setting": "[4]; [9]", "value": "significantly higher impact"},
      {"measurement": "energy expenditure compared to placebo", "setting": "[4]; eighty minutes following ingestion, time course and AUC, FIGS. 3 and 4", "value": "increased"},
      {"measurement": "nose temperature", "setting": "[2]", "value": "increase nose temperatures"},
      {"measurement": "EC50", "setting": "TRPA1", "value": "~10", "unit": "µM"},
      {"measurement": "impact on sympathetic nervous system activity compared to capsaicin", "setting": "[5]; [9]", "value": "significantly higher impact"},
      {"measurement": "chin temperature relative to baseline", "setting": "[5]; eighty minutes following ingestion, FIG. 8", "value": "increases chin temperature for a prolonged time"},
      {"measurement": "insulin sensitivity relative to same high fat diet without cinnamaldehyde", "setting": "[6]", "value": "improved insulin sensitivity"},
      {"measurement": "postprandial fat oxidation compared to placebo", "setting": "[7]; 90 minutes following ingestion, time course and AUC, FIGS. 5 and 6", "value": "maintained at higher levels"},
      {"measurement": "effect on fat oxidation compared to capsaicin", "setting": "[7]; [9]", "value": "equivalent effect"},
      {"measurement": "activity of hTRPA1, positive control efficacy", "setting": "[8]", "value": "maximum efficacy"},
      {"measurement": "activation of TRPV1", "setting": "TRPV1", "value": "but not TRPV1 or TRPM8"}
    ]}
  ]
}
